One assay deals with T1, SpsB (Staphylococcus aureus, UniProt P0A070).
T1 construct: using a bacterial membrane fraction as a source of SpsB; from tissue
T1 sequence (P0A070 1-191): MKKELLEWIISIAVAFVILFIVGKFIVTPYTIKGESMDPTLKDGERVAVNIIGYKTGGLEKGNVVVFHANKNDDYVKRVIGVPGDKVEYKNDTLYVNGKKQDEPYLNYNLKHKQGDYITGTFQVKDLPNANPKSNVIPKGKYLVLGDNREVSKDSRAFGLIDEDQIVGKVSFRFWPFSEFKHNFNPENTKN
Description: Inhibition of SpsB enzyme activity (fluorescence-based assay, bacterial membrane fraction). The format is biochemical. As to the method:
Signal peptidase enzyme activity was measured in a fluorescence-based assay using a bacterial membrane fraction as a source of SpsB (See Bruton et al., 2003, Eur J Med Chem 38:351-356). The SpsB substrate is a synthetic lipopeptide, decanoyl-K(DABCYL)-TPTAKA↓ASKKD-D(EDANS)—NH2 (prepared by JPT Peptide Technologies, Berlin, Germany). Assays were performed with 20 μM peptide substrate (Km≈5 μM) and reactions were initiated with enzyme addition (final protein concentration of 0.6 mg/mL). SpsB mediated cleavage of the peptide substrate was detected as an increase in fluorescence (excitation 340 nm/emission 460 nm).

The subject of assay [1] is MB 5393 (COL), a methicillin-resistant S. aureus strain. Kind of assay: Determination of minimum and synergistic inhibitory concentration. The conditions noted are these: for SIC: presence of imipenem (4 μg/mL); for MIC: Staphylococcus aureus. The format is cell-based. As to the method: MB 5393 (COL), a methicillin-resistant S. aureus strain, was inoculated into Trypticase Soy Broth (TSB, BBL) and grown in a humidified incubator for 18 hours with rotary shaking at 220 rpm and kept on ice until used.
A quantity of imipenem (Merck Chemical Collection) was weighed out and dissolved into sterile 10 mM MOPS buffer at pH 7. This solution was diluted to 1600 μg/mL, 200 μg/mL, and 25 μg/mL and filter-sterilized through a 0.45 μm filter. From these solutions, seven 1:2 serial dilutions were prepared using sterile 10 mM MOPS buffer at pH 7. The final concentration ranges tested were 128 to 2 μg/mL, 16 to […], and 2 to 0.03 μg/mL. The solutions were kept refrigerated until used.
Test compounds (EXAMPLES 1-67) were prepared in sterile water or DMSO at a concentration of 3.2 mg/mL. From this solution, 11 serial 1:2 dilutions were prepared using sterile water. The final concentration range tested was 64 to 0.0313 μg/mL. The solutions were kept refrigerated until used.
Two-fold serial dilutions of test compounds were tested in the presence and absence of subinhibitory concentrations of imipenem (4 μg/mL) in 96-well U bottom microliter dishes in microbiological growth media. The plates were inoculated with bacterial cells to a final concentration of ˜5×10^5 CFU/mL. Test plates were incubated stationery at 37° C. for 22-24 hours.
After 22 hours of incubation, the Minimum inhibitory concentrations (MICs) were determined, defined as the lowest concentration of antibiotic that prevented all visible growth in the absence of imipenem. Synergistic inhibitory concentrations (SICs) were determined, defined as the lowest concentration of antibiotic that prevented all visible growth in the presence of imipenen.

The mark [2] stands for this setting: MRSA COL, absence of imipenem, 22 hours, read-out: MIC.

Where two headings read alike, the source gives them in different places.

`CCCc1ccc(-c2ccc(C(=O)NCCC(=O)N3CCC[C@H]3C(=O)N(C)[C@@H]3C(=O)N[C@@H](C)C(=O)N[C@H](C(=O)O)Cc4ccc(O)c(c4)-c4cc3ccc4O)cc2)cc1` [EXAMPLE 12, (8S,11S,14S)-3,18-dihydroxy-11-methyl-14-(methyl{[(2S)-1-(3-{[(4′-propylbiphenyl-4-yl)carbonyl]amino}propanoyl)pyrrolidin-2-yl]carbonyl}amino)-10,13-dioxo-9,12-diazatricyclo[13.3.1.1^2,6]icosa-1(19),2(20),3,5,15,17-hexaene-8-carboxylic acid] had an IC50 against SpsB of 10 to 50 nM. In assay [1] (MRSA COL, 22 hours), the SIC entry is reported as “H (H: SIC 0.062-1)”. Besides, in assay [1] (setting [2]), the MIC is above 8 µg/mL.
Taken in the same sequence, the figures for `CCCc1ccc(-c2ccc(C(=O)NCCC(=O)N3CCC[C@@H]3C(=O)N(C)[C@@H]3C(=O)N[C@@H](C)C(=O)N[C@H](C(=O)O)Cc4ccc(OC)c(c4)-c4cc3ccc4OC)cc2)cc1` [EXAMPLE 13, (8S,11S,14S)-3,18-dimethoxy-11-methyl-14-(methyl{[(2R)-1-(3-{[(4′-propylbiphenyl-4-yl)carbonyl]amino}propanoyl)pyrrolidin-2-yl]carbonyl}amino)-10,13-dioxo-9,12-diazatricyclo[13.3.1.1^2,6]icosa-1(19),2(20),3,5,15,17-hexaene-8-carboxylic acid] were above 50 nM, “I (I: SIC >1)” and above 8 µg/mL.
For the compound `C[C@@H]1NC(=O)[C@@H](N(C)C(=O)[C@H](CCCCN)NC(=O)CCNC(=O)c2ccc(CCCCCCCCc3ccccc3)cc2)c2ccc(O)c(c2)-c2cc(ccc2O)C[C@@H](C(=O)O)NC1=O.O=C(O)C(F)(F)F` [EXAMPLE 15, (5S)-6-[[(7S,10S,13S)-13-carboxy-3,18-dihydroxy-10-methyl-8,11-dioxo-9,12-diazatricyclo[13.3.1.12,6]icosa-1(19),2(20),3,5,15,17-hexaen-7-yl](methyl)amino]-6-oxo-5-[(3-{[4-(8-phenyloctyl)benzoyl]amino}propanoyl)amino]hexan-1-aminium], on SpsB, the IC50 is below 10 nM. Besides, in assay [1] (MRSA COL, 22 hours), the SIC result is “G (G: SIC <0.0625)”. Further, in assay [1] (setting [2]), the minimum inhibitory concentration (MIC) is below 1 µg/mL.
As for `CCCCCCCCCc1ccc(-c2ccc(C(=O)NCCC(=O)N[C@@H](CCCCN)C(=O)N(C)[C@@H]3C(=O)N[C@@H](C)C(=O)N[C@H](C(=O)O)Cc4ccc(O)c(c4)-c4cc3ccc4O)cc2)cc1.O=C(O)C(F)(F)F` [EXAMPLE 16, (5S)-6-[[(7S,10S,13S)-13-carboxy-3,18-dihydroxy-10-methyl-8,11-dioxo-9,12-diazatricyclo[13.3.1.1^2,6]icosa-1(19),2(20),3,5,15,17-hexaen-7-yl](methyl)amino]-5-[(3-{[(4′-nonylbiphenyl-4-yl)carbonyl]amino}propanoyl)amino]-6-oxohexan-1-aminium trifluoroacetate], the IC50 against SpsB was below 10 nM. In addition, the SIC entry in assay [1] (MRSA COL, 22 hours) is “G (G: SIC <0.0625)”. In assay [1] (setting [2]), the MIC was below 1 µg/mL.
On SpsB, `CCCCCCCCCCc1ccc2cc(C(=O)NCCC(=O)N[C@@H](CCCCN)C(=O)N(C)[C@@H]3C(=O)N[C@@H](C)C(=O)N[C@H](C(=O)O)Cc4ccc(O)c(c4)-c4cc3ccc4O)ccc2c1.O=C(O)C(F)(F)F` [EXAMPLE 17, (5S)-6-[[(7S,10S,13S)-13-carboxy-3,18-dihydroxy-10-methyl-8,11-dioxo-9,12-diazatricyclo[13.3.1.1^2,6]icosa-1(19),2(20),3,5,15,17-hexaen-7-yl](methyl)amino]-5-({3-[(6-decyl-2-naphthoyl)amino]propanoyl}amino)-6-oxohexan-1-aminium trifluoroacetate] displayed an IC50 below 10 nM. The SIC result in assay [1] (MRSA COL, 22 hours) is “G (G: SIC <0.0625)”. For the same compound, in assay [1] (setting [2]), the MIC is below 1 µg/mL.
Taken in the same sequence, the figures for `CCCCCCCCCc1ccc(-c2ccc(C(=O)NCCC(=O)N3CCC[C@H]3C(=O)N(C)[C@@H]3C(=O)N[C@@H](C)C(=O)N[C@H](C(=O)O)Cc4ccc(O)c(c4)-c4cc3ccc4O)cc2)cc1` [EXAMPLE 18, (8S,11S,14S)-3,18-dihydroxy-11-methyl-14-(methyl{[(2)-1-(3-{[(4′-nonylbiphenyl-4-yl)carbonyl]amino}propanoyl)pyrrolidin-2-yl]carbonyl}amino)-10,13-dioxo-9,12-diazatricyclo[13.3.1.1^2,6]icosa-1(19),2(20),3,5,15,17-hexaene-8-carboxylic acid] were below 10 nM, “H (H: SIC 0.062-1)” and 1 to 8 µg/mL.
Taken in the same sequence, the figures for `CCCCCCCCCc1ccc(-c2ccc(C(=O)NCCC(=O)N3CC[C@H]3C(=O)N(C)[C@@H]3C(=O)N[C@@H](C)C(=O)N[C@H](C(=O)O)Cc4ccc(O)c(c4)-c4cc3ccc4O)cc2)cc1` [EXAMPLE 19, (8S,11S,14S)-3,18-dihydroxy-11-methyl-14-(methyl{[(2)-1-(3-{[(4′-nonylbiphenyl-4-yl)carbonyl]amino}propanoyl)azetidin-2-yl]carbonyl}amino)-10,13-dioxo-9,12-diazatricyclo[13.3.1.1^2,6]icosa-1(19),2(20),3,5,15,17-hexaene-8-carboxylic acid] were below 10 nM, “G (G: SIC <0.0625)” and 1 to 8 µg/mL.
In the same order, the values of `CCCCCCCCCCc1ccc2cc(C(=O)NCCC(=O)N3CC[C@H]3C(=O)N(C)[C@@H]3C(=O)N[C@@H](C)C(=O)N[C@H](C(=O)O)Cc4ccc(O)c(c4)-c4cc3ccc4O)ccc2c1` [EXAMPLE 20, (8S,11S,14S)-3,18-dihydroxy-11-methyl-14-(methyl[(2R)-1-{3-[(6-decyl-2-naphthoyl)amino]propanoylazetidin-2-yl]carbonyl}amino)-10,13-dioxo-9,12-diazatricyclo[13.3.1.1^2,6]icosa-1(19),2(20),3,5,15,17-hexaene-8-carboxylic acid] are below 10 nM, “G (G: SIC <0.0625)” and 1 to 8 µg/mL.
As for `C[C@@H]1NC(=O)[C@@H](N(C)C(=O)[C@H](CCCCN)NC(=O)CCNC(=O)c2ccc(-c3ccc(C4C5CC6CC(C5)CC4C6)cc3)cc2)c2ccc(O)c(c2)-c2cc(ccc2O)C[C@@H](C(=O)O)NC1=O` (stereo partly drawn) [EXAMPLE 21], the half-maximal inhibitory concentration (IC50) against SpsB is below 10 nM. The SIC entry in assay [1] (MRSA COL, 22 hours) is given as “G (G: SIC <0.0625)”. The MIC in assay [1] (MRSA, 22 h) is below 1 µg/mL.
Taken in the same sequence, the figures for `CC(c1ccc(-c2ccc(C(=O)NCCC(=O)N[C@@H](CCCCN)C(=O)N(C)[C@@H]3C(=O)N[C@@H](C)C(=O)N[C@H](C(=O)O)Cc4ccc(O)c(c4)-c4cc3ccc4O)cc2)cc1)C12CC3CC(CC(C3)C1)C2` (stereo partly drawn) [EXAMPLE 22] were below 10 nM, “G (G: SIC <0.0625)” and below 1 µg/mL.
In the same order, the values of `CCCCCCCCc1ccc(-c2ccc(C(=O)NCCC(=O)N[C@@H](CCCCN)C(=O)N(C)[C@@H]3C(=O)N[C@@H](C)C(=O)N[C@H](C(=O)O)Cc4ccc(O)c(c4)-c4cc3ccc4O)cc2)cc1` [EXAMPLE 23] are below 10 nM, “G (G: SIC <0.0625)” and below 1 µg/mL.
As for `CCCCCCCCCc1ccc(-c2ccc(C(=O)NCCC(=O)N[C@@H](CCCN)C(=O)N(C)C3C(=O)N[C@@H](C)C(=O)N[C@H](C(=O)O)Cc4ccc(O)c(c4)-c4cc3ccc4O)cc2)cc1` (stereo partly drawn) [EXAMPLE 24], the IC50 against SpsB is below 10 nM. In assay [1] (MRSA COL, 22 hours), the SIC result is given as “G (G: SIC <0.0625)”. The MIC in assay [1] (MRSA, 22 h) was below 1 µg/mL.
In the same order, the values of `CC(C)CCCC(C)CCc1ccc(-c2ccc(C(=O)NCCC(=O)N[C@@H](CCCCN)C(=O)N(C)[C@@H]3C(=O)N[C@@H](C)C(=O)N[C@H](C(=O)O)Cc4ccc(O)c(c4)-c4cc3ccc4O)cc2)cc1` (stereo partly drawn) [EXAMPLE 25] are below 10 nM, “G (G: SIC <0.0625)” and below 1 µg/mL.
Taken in the same sequence, the figures for `CCCCCCCCCc1ccc(-c2ncc(C(=O)NCCC(=O)N[C@@H](CCCCN)C(=O)N(C)[C@@H]3C(=O)N[C@@H](C)C(=O)N[C@H](C(=O)O)Cc4ccc(O)c(c4)-c4cc3ccc4O)cn2)cc1` [EXAMPLE 26] were below 10 nM, “G (G: SIC <0.0625)” and below 1 µg/mL.
On SpsB, `C[C@@H]1NC(=O)[C@@H](N(C)C(=O)[C@H](CCCCN)NC(=O)CCNC(=O)c2ccc(-c3ccc(CC4CCCCC4)cc3)cc2)c2ccc(O)c(c2)-c2cc(ccc2O)C[C@@H](C(=O)O)NC1=O` [EXAMPLE 27] gave an IC50 below 10 nM. Besides, in assay [1] (MRSA COL, 22 hours), the SIC result was “G (G: SIC <0.0625)”. Moreover, the MIC in assay [1] (MRSA, 22 h) is below 1 µg/mL.

By IC50 is commonly meant the midpoint of a concentration-inhibition curve. What is called MIC is the lowest concentration that inhibits growth of the organism.

(Values after US20130244929A1 (priority 2010, published 2013).)
